Results published in patent publication US8354382B2, “Hemifumarate of a pyrazole derivative” (Kissei Pharmaceutical Co., Ltd., priority 2008, dated 2013).

How the values were obtained:
[1] = Storage Stability Test (Deliquescence); format: physicochemical; conditions: stored at 40° C. and 75% relative humidity; up to 2 months
Procedure: The hemifumarate dihydrate of Example 1, the ¾ fumarate dihydrate of Comparative Example 1 and the above compound (B) were stored under a condition of 40° C. and 75% relative humidity, and existence or nonexistence of the deliquescence was examined.

[2] = Storage Stability Test (Purity), purity by HPLC and appearance after storage; format: physicochemical; conditions: for Purity (%) after 2 months / Purity (%) at initial point: HPLC
Procedure: The hemifumarate dihydrate of Example 1 and the above compound (B) each were stored under a condition of 40° C. and 75% relative humidity and 60° C. in open vessels, and the storage stability for 2 months was examined. […] Measurement conditions of HPLC are as follows.
Detector: ultraviolet-visible absorption spectrophotometer, wavelength: 225 nm
Column: LUNA C18(2) (produced by Phenomenex), 5 μm, 4.6×250 mm, particle diameter 100×10^−10 m
Column Temperature: a constant temperature of around 25° C.
Sample concentration: 1 mg/mL
Mobile phase A: 10 mM dipotassium hydrogenphosphate aqueous solution adjusted to pH 7.8 with phosphoric acid
Mobile phase B: acetonitrile
Gradient of concentration:
0 minute: Mobile phase B=22%
30 minutes: Mobile phase B=22%
50 minutes: Mobile phase B=70%
60 minutes: Mobile phase B=70%
Range of area measurement: for 50 minutes from the start of analysis, except for the areas of the peak of fumaric acid (retention time 2 minutes), the peak of diethyl fumarate which is an impurity (retention time around 44 minutes) and the peak of the blank solution.

[3] = storage condition 40° C. and 75% relative humidity
[4] = storage condition 60° C. in open vessels

Row | Purity (%) after 2 months [2, 3] [%] | Purity (%) at initial point [2, 3] [%] | Appearance after 2 months [2, 4] | Purity (%) after 2 months [2, 4] [%] | Appearance at initial point [2, 4] | Purity (%) at initial point [2, 4] [%] | SMILES | existence or nonexistence of the deliquescence [1]
1 | – | – | – | – | – | – | Cc1cc(OCCCNCC(C)(C)C(N)=O)ccc1Cc1c(O[C@@H]2O[C@H](CO)[C@@H](O)[C@H](O)[C@H]2O)n[nH]c1C(C)C.O.O.O=C(O)/C=C/C(=O)O [Comparative Example 1, 3-(3-{4-[3-(β-D-Glucopyanosyloxy)-5-isopropyl-1H-pyazol-4-ylmethyl]-3-methyl-phenoxy}propylamino)-2,2-dimethylpropionamide ¾ fumarate dihydrate] | deliquescence was observed from the initial point of the experiment
2 | 99.6 | 99.5 | White | 99.0 | White | 99.5 | Cc1cc(OCCCNCC(C)(C)C(N)=O)ccc1Cc1c(O[C@@H]2O[C@H](CO)[C@@H](O)[C@H](O)[C@H]2O)n[nH]c1C(C)C.O=C(O)/C=C/C(=O)O [Example 1, 3-(3-{4-[3-(β-D-Glucopyranosyloxy)-5-isopropyl-1H-pyrazol-4-ylmethyl]-3-methylphenoxy}propylamino)-2,2-dimethylpropionamide hemifumarate dihydrate] | no deliquescence during 2 months
3 | 97.0 | 98.7 | Brown | 95.3 | White | 98.7 | Cc1cc(OCCCNCC(C)(C)C(N)=O)ccc1Cc1c(O[C@@H]2OC(CO)[C@@H](O)C(O)C2O)n[nH]c1C(C)C (stereo partly drawn) [compound (B), 3-(3-{4-[3-(β-D-Glucopyanosyloxy)-5-isopropyl-1H-pyazol-4-ylmethyl]-3-methylphenoxy}propylamino)-2,2-dimethylpropionamide] | deliquescence was observed from the initial point of the experiment
